From article PMC11631053, “A receptor-based assay to study the sweet and bitter tastes of sweeteners and binary sweet blends: the SWEET project” (Chemical Senses, 2024)
“And” between values parts separate entries of the source, which are not always exact repeats. Equal entries are not always repeated. Where two headings read alike, the source gives them in different places. Marks after values point to notes of the source that are not given here.

How the values were obtained:
[1] = sucrose = 1, cited from earlier work
TAS2R1 = target: T1, TAS2R1 (Homo sapiens, UniProt Q9NYW7); assay: Calcium mobilization assay, HEK293T-Gα16gust44 cells expressing TAS2R1; settings: for Response of TAS2R1: maximal concentration tested: sucralose 100 mM, neotame 30 µM, Ace-K 300 mM, RebA 4 mM, RebM 4 mM, mogroside V 5 mM, erythritol 200 mM, D-allulose 500 mM, thaumatin 100 mM
T1 sequence (Q9NYW7 1-299): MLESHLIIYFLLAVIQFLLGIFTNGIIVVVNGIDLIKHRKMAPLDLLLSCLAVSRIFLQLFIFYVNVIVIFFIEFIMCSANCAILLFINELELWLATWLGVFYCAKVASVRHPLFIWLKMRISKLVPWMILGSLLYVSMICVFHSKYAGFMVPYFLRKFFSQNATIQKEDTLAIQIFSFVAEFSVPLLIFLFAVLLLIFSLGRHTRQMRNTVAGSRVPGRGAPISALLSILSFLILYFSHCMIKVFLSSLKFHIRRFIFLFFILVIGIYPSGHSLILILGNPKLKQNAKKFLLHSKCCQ
Procedure: (§1) Different concentration ranges were tested depending on the injected sweet compound. […] All of the concentration-receptor combinations were measured in triplicate, and each experiment was repeated at least 3 times. The Ca^2+ change was expressed as a fractional change in fluorescent light intensity: ΔF/F = (F − F0)/F0, where F was the fluorescent light intensity at each point, and F0 was the value of fluorescent light emitted prior to stimulus application. To calculate dose–response relationships, the changes in fluorescence upon stimulus application were averaged, mock-subtracted and baseline-corrected. The resulting obtained dose–response data were adjusted by using a 4-parameter logistic equation.

TAS2R3 = target: T2, TAS2R3 (Homo sapiens, UniProt Q9NYW6); assay: Calcium mobilization assay, HEK293T-Gα16gust44 cells expressing TAS2R3; settings: maximal concentration tested: sucralose 100 mM, neotame 30 µM, Ace-K 300 mM, RebA 4 mM, RebM 4 mM, mogroside V 5 mM, erythritol 200 mM, D-allulose 500 mM, thaumatin 100 mM
T2 sequence (Q9NYW6 1-316): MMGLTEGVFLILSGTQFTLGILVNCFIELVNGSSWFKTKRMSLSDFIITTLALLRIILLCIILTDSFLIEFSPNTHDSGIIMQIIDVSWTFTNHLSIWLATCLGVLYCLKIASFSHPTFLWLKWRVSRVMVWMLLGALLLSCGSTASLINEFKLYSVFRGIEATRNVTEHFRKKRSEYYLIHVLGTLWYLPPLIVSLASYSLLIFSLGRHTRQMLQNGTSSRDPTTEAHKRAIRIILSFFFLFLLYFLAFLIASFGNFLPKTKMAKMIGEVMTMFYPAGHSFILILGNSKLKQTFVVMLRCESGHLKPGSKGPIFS
Procedure: (§2) Different concentration ranges were tested depending on the injected sweet compound. […] All of the concentration-receptor combinations were measured in triplicate, and each experiment was repeated at least 3 times. The Ca^2+ change was expressed as a fractional change in fluorescent light intensity: ΔF/F = (F − F0)/F0, where F was the fluorescent light intensity at each point, and F0 was the value of fluorescent light emitted prior to stimulus application. To calculate dose–response relationships, the changes in fluorescence upon stimulus application were averaged, mock-subtracted and baseline-corrected. The resulting obtained dose–response data were adjusted by using a 4-parameter logistic equation. The half-maximal effective concentration (EC50) was calculated by using SigmaPlot software (Systat Software, San Jose, CA, USA) as described in supplemental Supplementary Figs. S1, S2, and S3.

TAS2R4 = target: T3, TAS2R4 (Homo sapiens, UniProt Q9NYW5); assay: Calcium mobilization assay, HEK293T-Gα16gust44 cells expressing TAS2R4; settings: maximal concentration tested: sucralose 100 mM, neotame 30 µM, Ace-K 300 mM, RebA 4 mM, RebM 4 mM, mogroside V 5 mM, erythritol 200 mM, D-allulose 500 mM, thaumatin 100 mM
T3 sequence (Q9NYW5 1-299): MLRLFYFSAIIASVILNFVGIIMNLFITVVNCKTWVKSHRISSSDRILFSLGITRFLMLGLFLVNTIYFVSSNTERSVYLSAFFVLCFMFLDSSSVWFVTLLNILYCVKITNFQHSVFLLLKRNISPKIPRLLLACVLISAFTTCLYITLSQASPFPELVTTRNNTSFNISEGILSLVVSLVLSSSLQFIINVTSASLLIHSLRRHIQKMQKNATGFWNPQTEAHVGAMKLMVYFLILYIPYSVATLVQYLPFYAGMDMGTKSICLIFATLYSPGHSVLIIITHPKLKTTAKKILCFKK
Procedure: as §2

TAS2R9 = target: T4, TAS2R9 (Homo sapiens, UniProt Q9NYW1); assay: Calcium mobilization assay, HEK293T-Gα16gust44 cells expressing TAS2R9; settings: maximal concentration tested: sucralose 100 mM, neotame 30 µM, Ace-K 300 mM, RebA 4 mM, RebM 4 mM, mogroside V 5 mM, erythritol 200 mM, D-allulose 500 mM, thaumatin 100 mM
T4 sequence (Q9NYW1 1-312): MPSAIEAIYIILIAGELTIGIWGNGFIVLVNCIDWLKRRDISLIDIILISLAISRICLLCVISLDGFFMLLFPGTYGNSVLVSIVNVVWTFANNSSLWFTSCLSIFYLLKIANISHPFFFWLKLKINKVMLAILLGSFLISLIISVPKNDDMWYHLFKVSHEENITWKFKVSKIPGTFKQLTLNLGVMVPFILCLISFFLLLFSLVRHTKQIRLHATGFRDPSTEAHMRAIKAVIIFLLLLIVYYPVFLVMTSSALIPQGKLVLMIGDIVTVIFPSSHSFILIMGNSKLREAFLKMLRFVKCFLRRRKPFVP
Procedure: as §2

TAS2R10 = target: T5, TAS2R10 (Homo sapiens, UniProt Q9NYW0); assay: Calcium mobilization assay, HEK293T-Gα16gust44 cells expressing TAS2R10; settings: for Response of TAS2R10: maximal concentration tested: sucralose 100 mM, neotame 30 µM, Ace-K 300 mM, RebA 4 mM, RebM 4 mM, mogroside V 5 mM, erythritol 200 mM, D-allulose 500 mM, thaumatin 100 mM
T5 sequence (Q9NYW0 1-307): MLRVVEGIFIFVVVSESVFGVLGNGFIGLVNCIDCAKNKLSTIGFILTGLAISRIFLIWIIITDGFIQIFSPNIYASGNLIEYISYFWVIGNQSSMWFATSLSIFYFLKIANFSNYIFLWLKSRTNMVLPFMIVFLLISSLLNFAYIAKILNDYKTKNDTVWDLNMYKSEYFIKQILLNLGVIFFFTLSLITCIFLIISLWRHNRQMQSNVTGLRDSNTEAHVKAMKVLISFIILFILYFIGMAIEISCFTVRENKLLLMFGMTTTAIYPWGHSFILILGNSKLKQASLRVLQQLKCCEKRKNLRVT
Procedure: as §1

TAS2R40 = TAS2R40 (Homo sapiens, UniProt P59535); assay: Calcium mobilization assay, HEK293T-Gα16gust44 cells expressing TAS2R40; settings: maximal concentration tested: sucralose 100 mM, neotame 30 µM, Ace-K 300 mM, RebA 4 mM, RebM 4 mM, mogroside V 5 mM, erythritol 200 mM, D-allulose 500 mM, thaumatin 100 mM
Procedure: as §1

TAS2R46 = target: T6, TAS2R46 (Homo sapiens, UniProt P59540); assay: Calcium mobilization assay, HEK293T-Gα16gust44 cells expressing TAS2R46; settings: for Response of TAS2R46: maximal concentration tested: sucralose 100 mM, neotame 30 µM, Ace-K 300 mM, RebA 4 mM, RebM 4 mM, mogroside V 5 mM, erythritol 200 mM, D-allulose 500 mM, thaumatin 100 mM
T6 sequence (P59540 1-309): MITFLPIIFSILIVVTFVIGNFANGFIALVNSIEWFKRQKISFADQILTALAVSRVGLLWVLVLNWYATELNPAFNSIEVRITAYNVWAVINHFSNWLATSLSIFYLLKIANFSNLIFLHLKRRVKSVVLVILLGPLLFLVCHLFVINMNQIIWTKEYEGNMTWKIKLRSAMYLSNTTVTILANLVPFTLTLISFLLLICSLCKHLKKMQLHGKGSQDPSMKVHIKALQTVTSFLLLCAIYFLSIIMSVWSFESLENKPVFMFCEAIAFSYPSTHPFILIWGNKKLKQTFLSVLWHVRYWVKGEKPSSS
Procedure: as §1

TAS2R50 = target: T7, TAS2R50 (Homo sapiens, UniProt P59544); assay: Calcium mobilization assay, HEK293T-Gα16gust44 cells expressing TAS2R50; settings: maximal concentration tested: sucralose 100 mM, neotame 30 µM, Ace-K 300 mM, RebA 4 mM, RebM 4 mM, mogroside V 5 mM, erythritol 200 mM, D-allulose 500 mM, thaumatin 100 mM
T7 sequence (P59544 1-299): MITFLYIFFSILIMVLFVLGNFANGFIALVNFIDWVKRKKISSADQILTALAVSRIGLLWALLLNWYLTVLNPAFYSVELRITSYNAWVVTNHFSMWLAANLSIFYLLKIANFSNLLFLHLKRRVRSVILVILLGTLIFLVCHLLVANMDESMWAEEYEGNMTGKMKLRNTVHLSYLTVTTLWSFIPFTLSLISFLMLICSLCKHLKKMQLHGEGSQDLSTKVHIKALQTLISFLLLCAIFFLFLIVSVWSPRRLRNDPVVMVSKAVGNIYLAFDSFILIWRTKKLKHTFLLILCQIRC
Procedure: as §2

[2] = ref Schiffman and Gatlin (1993)

Chain of TAS2R40 (P59535 whole entry): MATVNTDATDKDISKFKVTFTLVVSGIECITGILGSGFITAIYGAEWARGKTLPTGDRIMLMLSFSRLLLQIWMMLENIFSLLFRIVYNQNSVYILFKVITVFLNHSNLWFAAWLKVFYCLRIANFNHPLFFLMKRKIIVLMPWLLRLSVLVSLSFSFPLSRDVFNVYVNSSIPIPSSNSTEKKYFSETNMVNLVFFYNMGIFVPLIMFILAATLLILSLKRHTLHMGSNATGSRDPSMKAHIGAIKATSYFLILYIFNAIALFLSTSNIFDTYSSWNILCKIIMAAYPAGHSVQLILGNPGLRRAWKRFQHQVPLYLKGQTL

Row | Compound | Response of TAS2R1 (TAS2R1) | Response of TAS2R3 (TAS2R3) | Response of TAS2R4 (TAS2R4) | Response of TAS2R9 (TAS2R9) | Response of TAS2R10 (TAS2R10) | Response of TAS2R40 (TAS2R40) | Response of TAS2R46 (TAS2R46) | Response of TAS2R50 (TAS2R50) | EC50 (TAS2R1; TAS2R1 EC50) [mM] | EC50 (TAS2R10; TAS2R10 EC50) | EC50 (TAS2R46; TAS2R46 EC50) | Sweetness potency ([1]; ref Fujimaru et al. (2012)) | Sweetness potency ([1]; ref Ko et al. (2020)) | Sweetness potency [1, 2] | Sweetness potency ([1]; ref van der Wel and Loeve (1972)) | Sweetness potency ([1]; ref Prakash et al. (2014)) | Sweetness potency ([1]; ref Nofre and Tinti (2000)) | Sweetness potency ([1]; ref Jia and Yang (2009))
1 | OC[C@@H](O)[C@@H](O)CO [Erythritol, erythritol] | − | − | − | − | − | − | − | − |  |  |  | 0.9^f |  |  |  |  |  | 
2 | O=C(CO)[C@H](O)[C@H](O)[C@H](O)CO [D-allulose] | − | − | − | − | − | − | − | − |  |  |  |  | 0.6^h |  |  |  |  | 
3 | COC(=O)[C@H](Cc1ccccc1)NC(=O)[C@H](CC(=O)O)NCCC(C)(C)C [Neotame] | − | − | − | − | − | − | − | − |  |  |  |  |  |  |  |  | 10,000^a | 
4 | C[C@H](CC[C@@H](O[C@@H]1O[C@H](CO[C@@H]2O[C@H](CO)[C@@H](O)[C@H](O)[C@H]2O)[C@@H](O)[C@H](O)[C@H]1O[C@@H]1O[C@H](CO)[C@@H](O)[C@H](O)[C@H]1O)C(C)(C)O)[C@H]1CC[C@@]2(C)[C@@H]3CC=C4[C@@H](CC[C@H](O[C@@H]5O[C@H](CO[C@@H]6O[C@H](CO)[C@@H](O)[C@H](O)[C@H]6O)[C@@H](O)[C@H](O)[C@H]5O)C4(C)C)[C@]3(C)[C@H](O)C[C@]12C [Mogroside V, mogroside V] | − | − | − | − | − | − | − | − |  |  |  |  |  |  |  |  |  | 500^c
5 | CC1=CC(=O)NS(=O)(=O)O1 [Ace-K, acesulfame-K] | − | − | − | − | − | − | − | − |  |  |  |  |  | 200^g |  |  |  | 

More lines, main results first:

Row | Response of TAS2R1 (TAS2R1) | Response of TAS2R3 (TAS2R3) | Response of TAS2R4 (TAS2R4) | Response of TAS2R9 (TAS2R9) | Response of TAS2R10 (TAS2R10) | Response of TAS2R40 (TAS2R40) | Response of TAS2R46 (TAS2R46) | Response of TAS2R50 (TAS2R50) | EC50 (TAS2R1; TAS2R1 EC50) [mM] | EC50 (TAS2R10; TAS2R10 EC50) | EC50 (TAS2R46; TAS2R46 EC50) | Compound | Sweetness potency ([1]; ref Fujimaru et al. (2012)) | Sweetness potency ([1]; ref Ko et al. (2020)) | Sweetness potency [1, 2] | Sweetness potency ([1]; ref van der Wel and Loeve (1972)) | Sweetness potency ([1]; ref Prakash et al. (2014)) | Sweetness potency ([1]; ref Nofre and Tinti (2000)) | Sweetness potency ([1]; ref Jia and Yang (2009))
6 | #^a | − | − | − | #^a | − | #^a | − | > 100 | 17 mM and ≥ 3 mM | 3 mM and ≥ 3 mM | OC[C@H]1O[C@H](O[C@]2(CCl)O[C@H](CCl)[C@@H](O)[C@@H]2O)[C@H](O)[C@@H](O)[C@H]1Cl [Sucralose, sucralose] |  |  | 600^g |  |  |  | 
7 | − | − | − | − | − | − | − | − |  |  |  | thaumatin |  |  |  | 100,000^b |  |  | 
8 | − | − | − | − | − | − | − | − |  |  |  | C=C1C[C@@]23CC[C@H]4[C@@](C)(CCC[C@@]4(C)C(=O)O[C@@H]4O[C@H](CO)[C@@H](O)[C@H](O[C@@H]5O[C@H](CO)[C@@H](O)[C@H](O)[C@H]5O)[C@H]4O[C@@H]4O[C@H](CO)[C@@H](O)[C@H](O)[C@H]4O)[C@@H]2CC[C@]1(O[C@@H]1O[C@H](CO)[C@@H](O)[C@H](O[C@@H]2O[C@H](CO)[C@@H](O)[C@H](O)[C@H]2O)[C@H]1O[C@@H]1O[C@H](CO)[C@@H](O)[C@H](O)[C@H]1O)C3 [RebM, Rebaudioside M] |  |  |  |  | 250^d |  | 
